Laboratory results reported in US5134137A, “Cephalosporin antibiotics” (The Upjohn Company, priority 1990, dated 1992).
Values after ≈ are worked out from the molar mass of the structure shown. Where two headings read alike, the source gives them in different places.

Tests used:
Type in all cases: cell-based
Pseudomonas aeruginosa = assay: MIC, agar dilution, Pseudomonas aeruginosa; conditions: Pseudomonas aeruginosa, ATCC27853; strain ATCC 27853; read-out: MIC
Description: (§1) Stock solution of each test antibiotic compound were prepared to have a concentration of 2 mg. of the test compound per milliliter in sterile water of 0.1M ammonium acetate solution. The amount of each compound used was adjusted for base compound activity as calculated from the purity data for the selected batch of compound.
(§2) The dilution procedure described by Washington and Sutter [Manual of Clinical Microbiology, 3rd, Edit. (Lennett, E. H. et al, Eds.), pp. 453-458 (1980), American Society for Microbiology, Washington, D.C.] was modified so that serial concentrations of 128 to 0.0625 microgram/ml. in sterile water was obtained. Then 1.5 ml. aliquots of these test antibiotic dilution mixtures are added to 13.5 molten (50° C.) Mueller-Hinton agar. Each resulting mixture is poured into 15×100 mm, sterile Petri plates and allowed to dry at room temperature overnight.
(§3) Test bacterial cultures are maintained at -70° C. on glass beads. [See R. J. Yancey, Jr. et al, Amer. Jr. of Vet. Research, 48, No. 7, pp. 1050-1053, (1987)]. At least one bacteria-laden bead per culture is dropped into one ml. of brain heart infusion (BHI) broth for overnight culture at 37° C. in 5% V/V carbon dioxide in air atmosphere.
(§4) On the data of assay, 2 to 8 drops of the bacterial broth cultures are transferred to fresh BHI broth (1 ml.) and the mixture is incubated for 4 to 6 hours at 37° C. in a 5% V/V carbon dioxide in air atmosphere. The resulting cultures are then diluted to match a 0.5 MacFarland standard and further diluted 1:20 V/V with sterile saline solution.
(§5) A 0.001 ml. drop of the resulting mixture, containing approximately 10^3 to 10^4 colony forming units (CFU) of each test bacteria organism, is dispensed onto the surface of the test antibiotic compound test plates with a Steer's type replicator. The resulting innoculated plates are incubated 16 to 18 hours at 37° C. with a carbon dioxide atmosphere.
as §1, with “Stock solutions” for “Stock solution”
as §2, with “mm.” for “mm,”
as §2, with “for Microbiology.” for “for Microbiology,”, “15×100 mm.” for “15×100 mm,”
as §3, with “culture” for “cultures”
(§6) On the day of assay, 2 to 8 drops of the bacterial broth cultures are transferred to fresh BHI broth (1 ml.) and the mixture is incubated for 4 to 6 hours at 37° C. in a 5% V/V carbon dioxide in air atmosphere. […]

Pasteurella hemolytica = assay: MIC (minimum inhibitory concentration), agar dilution, Pasteurella hemolytica; conditions: Pasteurella, read-out: MIC
Description: as §1, §2, §3, §4, §5
as §1, with “Stock solutions” for “Stock solution”
as §2, with “mm.” for “mm,”
as §2, with “for Microbiology.” for “for Microbiology,”, “15×100 mm.” for “15×100 mm,”
as §3, with “culture” for “cultures”
as §6

Streptococcus suis = assay: MIC, agar dilution, Streptococcus suis; conditions: Streptococcus suis; strain 650-2; read-out: MIC
Description: as §1, §2, §3, §4, §5
as §1, with “Stock solutions” for “Stock solution”
as §2, with “mm.” for “mm,”
as §2, with “for Microbiology.” for “for Microbiology,”, “15×100 mm.” for “15×100 mm,”
as §3, with “culture” for “cultures”
as §6

Salmonella choleraesuis = assay: MIC, agar dilution, Salmonella choleraesuis; conditions: Salmonella enterica, read-out: MIC
Description: as §1, §2, §3, §4, §5
as §1, with “Stock solutions” for “Stock solution”
as §2, with “mm.” for “mm,”
as §2, with “for Microbiology.” for “for Microbiology,”, “15×100 mm.” for “15×100 mm,”
as §3, with “culture” for “cultures”
as §6

Streptococcus agalactiae = assay: MIC, agar dilution, Streptococcus agalactiae; conditions: Streptococcus agalactiae, read-out: MIC
Description: as §1, §2, §3, §4, §5
as §1, with “Stock solutions” for “Stock solution”
as §2, with “mm.” for “mm,”
as §2, with “for Microbiology.” for “for Microbiology,”, “15×100 mm.” for “15×100 mm,”
as §3, with “culture” for “cultures”
as §6

[1] = test system: Streptococcus dysgalactiae; assay: MIC, agar dilution, Streptococcus dysgalactiae; conditions: Streptococcus dysgalactiae; strain UC251; read-out: MIC
Description: as §1, §2, §3, §4, §5
as §1, with “Stock solutions” for “Stock solution”
as §2, with “mm.” for “mm,”
as §2, with “for Microbiology.” for “for Microbiology,”, “15×100 mm.” for “15×100 mm,”
as §3, with “culture” for “cultures”
as §6

Enterococcus faecalis = assay: MIC, agar dilution, Enterococcus faecalis; conditions: Enterococcus faecalis; strain UC694; read-out: MIC
Description: as §1, with “Stock solutions” for “Stock solution”
as §2, §3, §4, §5, §1
as §2, with “mm.” for “mm,”
as §2, with “for Microbiology.” for “for Microbiology,”, “15×100 mm.” for “15×100 mm,”
as §3, with “culture” for “cultures”
as §6

Corynebacterium pyogenes = assay: MIC, agar dilution, Corynebacterium pyogenes; conditions: strain 213-2; read-out: MIC
Description: as §1, §2, §3, §4, §5
as §1, with “Stock solutions” for “Stock solution”
as §2, with “mm.” for “mm,”
as §2, with “for Microbiology.” for “for Microbiology,”, “15×100 mm.” for “15×100 mm,”
as §3, with “culture” for “cultures”
as §6

Pasteurella multocida = assay: MIC, agar dilution, Pasteurella multocida; conditions: Pasteurella multocida; strain UC9581; read-out: MIC
Description: as §1, §2, §3, §4, §5
as §1, with “Stock solutions” for “Stock solution”
as §2, with “mm.” for “mm,”
as §2, with “for Microbiology.” for “for Microbiology,”, “15×100 mm.” for “15×100 mm,”
as §3, with “culture” for “cultures”
as §6

Salmonella typhimurium = assay: MIC, agar dilution, Salmonella typhimurium; conditions: Salmonella enterica, read-out: MIC
Description: as §1, §2, §3, §4, §5
as §1, with “Stock solutions” for “Stock solution”
as §2, with “mm.” for “mm,”
as §2, with “for Microbiology.” for “for Microbiology,”, “15×100 mm.” for “15×100 mm,”
as §3, with “culture” for “cultures”
as §6

Streptococcus uberis = assay: MIC, agar dilution, Streptococcus uberis; conditions: Streptococcus uberis, read-out: MIC
Description: as §1, §2, §3, §4, §5
as §1, with “Stock solutions” for “Stock solution”
as §2, with “mm.” for “mm,”
as §2, with “for Microbiology.” for “for Microbiology,”, “15×100 mm.” for “15×100 mm,”
as §3, with “culture” for “cultures”
as §6

Streptococcus bovis = assay: MIC, agar dilution, Streptococcus bovis; conditions: Streptococcus equinus; strain UC6281; read-out: MIC
Description: as §1, §2, §3, §4, §5
as §1, with “Stock solutions” for “Stock solution”
as §2, with “mm.” for “mm,”
as §2, with “for Microbiology.” for “for Microbiology,”, “15×100 mm.” for “15×100 mm,”
as §3, with “culture” for “cultures”
as §6

Enterococcus faecium = assay: MIC, agar dilution, Enterococcus faecium; conditions: Enterococcus faecium; strain UC241; read-out: MIC
Description: as §1, with “Stock solutions” for “Stock solution”
as §2, §3, §4, §5, §1
as §2, with “mm.” for “mm,”
as §2, with “for Microbiology.” for “for Microbiology,”, “15×100 mm.” for “15×100 mm,”
as §3, with “culture” for “cultures”
as §6

Escherichia coli = assay: MIC, agar dilution, Escherichia coli; conditions: Escherichia coli, read-out: MIC
Description: as §1, §2, §3, §4, §5
as §1, with “Stock solutions” for “Stock solution”
as §2, with “mm.” for “mm,”
as §2, with “for Microbiology.” for “for Microbiology,”, “15×100 mm.” for “15×100 mm,”
as §3, with “culture” for “cultures”
as §6

[2] = test system: Bordetella bronchiseptica; assay: MIC, agar dilution, Bordetella bronchiseptica; conditions: Bordetella bronchiseptica; strain UC6313; read-out: MIC
Description: as §1, §2, §3, §4, §5
as §1, with “Stock solutions” for “Stock solution”
as §2, with “mm.” for “mm,”
as §2, with “for Microbiology.” for “for Microbiology,”, “15×100 mm.” for “15×100 mm,”
as §3, with “culture” for “cultures”
as §6

Staphylococcus aureus = assay: MIC, agar dilution, Staphylococcus aureus; conditions: Staphylococcus aureus, read-out: MIC
Description: as §1, §2, §3, §4, §5
as §1, with “Stock solutions” for “Stock solution”
as §2, with “mm.” for “mm,”
as §2, with “for Microbiology.” for “for Microbiology,”, “15×100 mm.” for “15×100 mm,”
as §3, with “culture” for “cultures”
as §6

Micrococcus luteus = assay: MIC, agar dilution, Micrococcus luteus; conditions: Micrococcus luteus; strain UC130; read-out: MIC
Description: as §1, §2, §3, §4, §5
as §1, with “Stock solutions” for “Stock solution”
as §2, with “mm.” for “mm,”
as §2, with “for Microbiology.” for “for Microbiology,”, “15×100 mm.” for “15×100 mm,”
as §3, with “culture” for “cultures”
as §6

[3] = CHOLERAESUIS / UC6073, strain UC6073
[4] = CHOLERAESUIS / UC6077, strain UC6077
[5] = TYPHIMURIUM / UC6162, strain UC6162
[6] = TYPHIMURIUM / UC6164, strain UC6164

SMILES	MIC (Pseudomonas aeruginosa) [µg/mL]	MIC (Pasteurella hemolytica; strain UC6531) [µg/mL]	MIC (Pasteurella hemolytica; strain UC6532) [µg/mL]	MIC (Pasteurella hemolytica; strain UC9582) [µg/mL]	MIC (Streptococcus suis) [µg/mL]	MIC (Salmonella choleraesuis; [3]) [µg/mL]	MIC (Salmonella choleraesuis; [4]) [µg/mL]	MIC (Streptococcus agalactiae; strain UC3947) [µg/mL]	MIC (Streptococcus agalactiae; strain UC6892) [µg/mL]	MIC [1] [µg/mL]	MIC (Enterococcus faecalis) [µg/mL]	MIC (Corynebacterium pyogenes) [µg/mL]	MIC (Pasteurella multocida) [µg/mL]	MIC (Salmonella typhimurium; [5]) [µg/mL]	MIC (Salmonella typhimurium; [6]) [µg/mL]	MIC (Streptococcus uberis; strain UC3946) [µg/mL]	MIC (Streptococcus uberis; strain UC6159) [µg/mL]	MIC (Streptococcus bovis) [µg/mL]	MIC (Enterococcus faecium) [µg/mL]	MIC (Escherichia coli; strain UC3784) [µg/mL]	also measured
CO/N=C(\C(=O)N[C@@H]1C(=O)N2C(C(=O)O)=C(CSSC)CS[C@H]12)c1csc(N)n1 [Example 9, 7-[2-(2-amino-1,3-thiazo-4-yl]-2-(methoxyimino)acetamimdo]-3-methyldithiomethyl-3-cephem-4-carboxylic acid]	> 32	≤ 0.06	≤ 0.06	≤ 0.06	≤ 0.06	1 (≈ 2.1 µM)	4 (≈ 8.41 µM)	≤ 0.06	≤ 0.06	≤ 0.06	> 32	0.5 (≈ 1.05 µM)	≤ 0.06	1 (≈ 2.1 µM)	1 (≈ 2.1 µM)	0.13 (≈ 0.273 µM)	16 (≈ 33.6 µM)	≤ 0.06	> 32	1 (≈ 2.1 µM)	MIC (Escherichia coli; strain UC6720): 1 µg/mL (≈ 2.1 µM); MIC (Escherichia coli; strain UC9670): 1 µg/mL (≈ 2.1 µM); MIC [2]: > 32 µg/mL; MIC (Staphylococcus aureus; strain UC6093): 2 µg/mL (≈ 4.21 µM); MIC (Staphylococcus aureus; strain UC6097): 2 µg/mL (≈ 4.21 µM); MIC (Staphylococcus aureus; strain UC9203): 2 µg/mL (≈ 4.21 µM); MIC (Micrococcus luteus): 0.13 µg/mL (≈ 0.273 µM)
CO/N=C(\C(=O)N[C@@H]1C(=O)N2C(C(=O)O)=C(CSSc3ccc([N+](=O)[O-])cc3)CS[C@H]12)c1csc(N)n1 [Example 18]	> 32	0.25 (≈ 0.429 µM)	≤ 0.06	≤ 0.06	≤ 0.06	2 (≈ 3.43 µM)	4 (≈ 6.86 µM)	≤ 0.06	≤ 0.06	≤ 0.06	> 32	0.25 (≈ 0.429 µM)	≤ 0.06	4 (≈ 6.86 µM)	2 (≈ 3.43 µM)	0.25 (≈ 0.429 µM)	8 (≈ 13.7 µM)	≤ 0.06	> 32	1 (≈ 1.72 µM)	MIC (Escherichia coli; strain UC6720): 2 µg/mL (≈ 3.43 µM); MIC (Escherichia coli; strain UC9670): 1 µg/mL (≈ 1.72 µM); MIC [2]: > 32 µg/mL; MIC (Staphylococcus aureus; strain UC6093): 2 µg/mL (≈ 3.43 µM); MIC (Staphylococcus aureus; strain UC6097): 2 µg/mL (≈ 3.43 µM); MIC (Staphylococcus aureus; strain UC9203): 2 µg/mL (≈ 3.43 µM); MIC (Micrococcus luteus): ≤ 0.06 µg/mL
